Data as given in patent US8557798.

Conditions: from COC(=O)c1cccc(CN2C(=O)NC(C)(c3cccc(CCCN)c3)C2=O)c1; amide bond; sodium methoxide; MeOH; 7.5 mM; 85.0 °C; 96.0 h

Work on `CC12NC(=O)N(Cc3cccc(c3)C(=O)NCCCc3cccc1c3)C2=O` (stereo not shown) yielded a ring closure, yield of all isomers of 48%.
